Measured values: patent US20140336616A1, “DELIVERY DEVICE” (INTERNATIONAL SCIENTIFIC PTY LTD, priority 2012, published 2014)

Test system: excised human skin
Assay: Sodium fluorescein dye penetration into excised human skin in Franz cells, with LSCM imaging and image analysis
Type: in vitro ADME
Settings: 300 μL NaF 1 mg/mL in saline, 15 minutes, 34-35° C.; images from 73 μm deep
Source text: Microneedle Treatment: A piece of gauze was folded in half 4 times and then the skin sample placed on top. In-situ skin tension was approximately simulated by stretching the skin over the gauze and pinning in place. A pre-prepared microneedle impact applicator was then used to apply the microneedle to the skin at speed (approximately 3 m·s−1). This applicator consisted of a housing, a spring-loaded plunger and the banks of laser cut microneedles (two 3-needle banks gave a total of 6 microneedles). The banks were mounted into the plunger which was then drawn back, loading the spring, and held in place using a pin. Upon removal of the pin, the plunger accelerated towards the skin, driving the microneedles through the stratum corneum and into the viable epidermis and dermis.
Dye incubation in Franz Cells: A Franz cell was prepared by applying vacuum grease to the sealing surfaces of the receptor and donor. […]
Laser scanning confocal microscopy (LSCM): To prepare the samples for LSCM, a cut was made around the imprint made by the Franz cell. […] The LSCM machine was then switched to the fluorescent mode with 488 nm excitation and 550±88 nm emission band was recorded. […]
Image analysis: The image data names were encoded to blind the image analysis researcher. […] Image J (NIH, Bethesda, Md.) was then used to quantify fluorescence intensity and dye positive areas. […]

In the case of O=C1OC2(c3ccc(O)cc3Oc3cc(O)ccc32)c2ccccc21 [NaF, Sodium Fluorescein], the “NaF dye penetration / fluorescence pattern (LSCM, visual)” value is reported as “no penetration of the dye beyond the stratum corneum”.
